Read-outs that look alike come from different tables or passages of the source.
Assays:
[1] = test system: E. coli K12 5K; test: ζ-potential estimate of the maximum number of surface-adsorbed AMPs; format: cell-based, Escherichia coli; conditions: for fraction of cell associated peptides that do not enter inner compartments: at bacteria inhibition levels of 10%; for NPmax/NB, ratio of surface-adsorbed to cell-partitioned AMPs (upper boundary): at the MIC
Method: DLS and ζ-potential measurements were carried out with a Zetasizer Nano ZSP (Malvern Panalytical, Malvern, UK). E. coli suspensions were incubated with a given AMP concentration at 37°C for 1 h prior to each measurement. […] Control samples (no AMPs) were suspended and incubated in buffer alone. […] Because of the high conductivity of PBS, the electrode voltage was set to 4 V for ζ-potential measurements to keep currents below 1 mA. Further, measurements were paused for 180 s between individual runs. This prevented Joule heating leading to sample denaturation and electrode blackening. Experiments were repeated three times on different preparations, each consisting of at least six measurements. Reported ζ-potential values are given by the median of the corresponding measurements (i.e., from at least 18 values) and errors were derived using the median absolute deviations.
Remembering that ζ-potential values are sensitive only to the charges exposed to the outside of any particle, including bacteria, we can obtain upper boundaries for the number of surface adsorbed peptides. Given the high abundance of lipopolysaccharides (LPS) in the outer leaflet (about 70–90 vol%) of Gram-negative bacteria, as compared to other charged lipid species such as PG and CL (<2 vol%) and membrane proteins (7–20 vol%) ([40]), it is justified to assume that LPS dominates the surface potential of E. coli. Then, following considerations put forth for peptides partitioning in liposomes ([31], [41]), the ratio of ζ-potential values in the presence and absence of AMPs is […]
(9) ζ/ζ0≈σ/σ0≃(S0/S)∑iNizi+NPzP/NLPS0zLPS, where (σ, σ0) and (S, S0) are the corresponding surface charge densities and cell surface areas, respectively. Further, NLPS0 is the initial number of LPS molecules in the outer leaflet, with a nominal charge zLPS ≃ −6 ([42]); NP is the number of surface adsorbed AMPs of nominal charge zP ≃ +5 ([20]); and ∑iNizi=NLPSzLPS+NPGzPG+NCLzCL considers anionic lipids that translocate into the outer leaflet due to AMP activity ([3], [6], [18]). This term also accounts for a possible loss of LPS molecules in the outer leaflet due to vesiculation processes ([25]). Note that Equation (9) is only valid for |ζ| ≤ 25 mV, in which range ζ ∝ σ ([43]). […] Rearranging Equation (9) leads to […]
(13) NPmax/NLPS0≈(zLPS/zP)(ζ/ζ0-1), where NPmax is the upper boundary of surface adsorbed peptides. […] For example, using DLS, we measured a hydrodynamic diameter of E. coli K12 2RH = 980 ± 30 nm, from which we calculate S0≃4.5×10^6 nm^2, approximating the bacteria's shape with a cylinder of radius r and length l using RH2≃r^2/2+l^2/12 and r ~ 400 nm ([47]). […]

[2] = test system: E. coli K12 5K; format: cell-based, Escherichia coli; conditions: MIC = IC99.9, 2 h incubation with AMP in PBS at 37°C, then growth in LB about 20 h
Method: Colonies of E. coli K12 5K (courtesy of Günther Koraimann, University of Graz) were grown in LB-agar plates at 37°C. Overnight cultures (ONCs) were prepared by inoculating a single colony in 3 ml LB-medium in sterile polypropylene conical tubes (15 ml), enabling bacterial growth under aerobic conditions for 12−16 h in a shaking incubator at 37°C. Main cultures were prepared by suspending an aliquot of the ONCs in 10 ml LB-medium in sterile polypropylene conical tubes (50 ml) and harvested in the middle of the exponential growth phase. Bacteria were then immediately washed twice and re-suspended in nutrient-free and isotonic phosphate-buffered saline (PBS) solution (phosphate buffer 20 mM, NaCl 130 mM) at pH 7.4. Bacterial concentration was measured via turbidity measurements. The optical density at λ = 600 nm (OD600) was acquired with the spectrophotometer Thermo Spectronic Genesys 20 (Thermo Fisher Scientific, Waltham, MA), where OD600 = 1 corresponds approximately to 8 ×10^8 CFU/ml (where CFU is colony forming units).
The antimicrobial activity of the AMPs on E. coli was tested using a modified susceptibility microdilution assay ([30]) in the bacterial concentration range of 5 × 10^5 to 10^9 CFU/ml. Bacterial suspensions were incubated at a given AMP concentration for 2 h at 37°C (control samples were incubated in buffer only). Then, cell growth was monitored upon addition of double concentrated LB-medium for about 20 h using a Bioscreen C MBR (Oy Growth Curves Ab, Helsinki, Finland).
This allowed us to quantify the number density of surviving bacteria from the onset of the exponential growth via the relation Δtexp = a + blog(ncell), where a and b were obtained from a calibration curve in absence of AMPs (Supplementary Figure 1B). Then, the inhibited bacterial fraction IF=1-ncell([P])/ncell0 was calculated for different values of peptide concentration, [P], and of bacterial number density of the control sample, ncell0 . Following the so-called “equi-activity” analysis ([27], [31]), we further interpolated IF using a Gompertz function, which enabled us to derive inhibitory peptide concentrations ICx, where x is the corresponding inhibited bacterial fraction (Supplementary Figure 1C). By convention, the standard MIC is defined at inhibition levels of 99.9%, i.e., IC99.9 ≡ MIC. Additional control experiments were performed in order to test whether DMSO and acetic acid, used in buffer solutions of both peptides (see above), affect bacterial growth. In particular, the microdilution assays were repeated with LF11-215 dissolved in pure PBS, yielding equivalently delayed onsets of bacterial growth.

Row | Substance | fraction of cell associated peptides that do not enter inner compartments [1] | NPmax/NB, ratio of surface-adsorbed to cell-partitioned AMPs (upper boundary) [1] | MIC ([2]; ncell = 10^6 CFU/ml) [µM] | MIC ([2]; ncell = 10^9 CFU/ml) [µM]
1 | H-FWRIRIRR-NH2 [LF11-215, H-FWRIRIRR-NH2] | ~ 5% | about 1% | 13.7 ± 0.4 | 158 ± 2
2 | H-PFFWRIRIRR-NH2 [LF11-324, H-PFFWRIRIRR-NH2] | ~ 18% | ~5% | 11.1 ± 0.6 | 57 ± 2

Reference: article PMC8757871, “Bridging the Antimicrobial Activity of Two Lactoferricin Derivatives in E. coli and Lipid-Only Membranes” (Frontiers in Medical Technology, 2021)
